From patent EP0011821A2, “Antiseborrhoeic hair treatment composition” (Henkel Kommanditgesellschaft auf Aktien, priority 1978, dated 1980)

Tested on: Meerschweinchen
Experiment: Test for anti-dandruff effect on oleic-acid-treated back skin of shorn guinea pigs (skin fold thickness and visual scaling score)
Type: in vivo
Details: 5 % test substance with 5 % Ölsäure in 70 %igem Ethanol, topical on the back, 60 min exposure on 4 consecutive days, relative to skin treated with 5 % Ölsäure in 70 % Ethanol only, significant (+, 95 %)
From the text: Die Prüfung auf Antischuppenwirkung wurde in folgender Weise durchgeführt:
Die Prüfsubstanz wurde in 5 % iger Konzentration zusammen mit 5 % Ölsäure in 70 %igem Ethanol gelöst und in alternierender Reihenfolge und in rotierendem Schema auf den Rücken junger, geschorener weiblicher Meerschweinchen im Gewicht von 600 ± 50 g aufgetragen. Die Einwirkungszeit der Substanz wurde dabei auf 60 Minuten begrenzt, da diese Zeit ausreichte, um eine Wirkung zu erzielen. Anschließend wurden die Tiere mit warmem Wasser 30 Sekunden lang abgeduscht. Die Reihenfolge der Tiere bei der Applikation wechselte dabei täglich, um Differenzen in der Einwirkungszeit zwischen dem ersten und letzten Tier der Gruppe auf ein Minimum zu begrenzen. Diese Behandlung geschah an vier aufeinanderfolgenden Tagen, darauf folgte eine Ruhezeit (Entwicklungszeit von drei Tagen). Am siebenten Tag wurde ausgewertet, und zwar a) kutimetrisch auf Hautfaltendicke instrumentell mit dem Cutimeter nach Götze und b) visuell auf Schuppenbildung bzw. Hemmung nach einer 4-Punkte-Skala folgender Definition: • 0 = keine Schuppen • 1 = leichte Schuppen • 2 = kräftige Schuppen • 3= starke Schuppen mit Rötung • 4 = Krusten mit Aufrichten der Haare.
Die Versuchsgruppe bestand aus 6 Tieren. Das Kollektiv wurde mathematisch auf Homogenität geprüft und nach Eliminierung signifikant abweichender Tiere wurden Mittelwert und Streuung berechnet. […]

Question: For `COc1ccc(Cc2nccc3cc(OC)c(OC)cc23)cc1OC` [Papaverin, 1-(3',4'-dimethoxybenzyl)-6,7-dimethoxy-isochinolin], which “Hautdickenmessung Hemmung %” value (evaluated on day 7 with the Cutimeter nach Götze) is on record?
Answer: Its value is 17%.

Question: And the “Hautschuppenmessung Hemmung %” value (evaluated visually on day 7 on a 0-4 scale)?
Answer: Its value is 100%.
